# Source: patent US12275731B2, “Azaindole inhibitors of wild-type and mutant forms of LRRK2” (DANA-FARBER CANCER INSTITUTE, INC., priority 2018, dated 2025)
# How the values were obtained:
# Assay in all cases: KinomeScan profiling
# Assay type in all cases: binding
# [1] = target: T1, ABL1(F317L)-phosphorylated (Homo sapiens, UniProt P00519, F317L); conditions: read-out: % control
# T1 construct: purchased KinomeScan®
# In short: (§1)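 Luminescence (RLU) was converted to percent of control, with DMSO set as 100% and a reference compound as 0%. Test compounds were run at 1 μM against 468 kinases. Kinases showing below 35% of control were scored as bound.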
# [2] = target: T2, CSNK1A1L (Homo sapiens, UniProt Q8N752); conditions: read-out: % control
# T2 sequence (Q8N752 1-337): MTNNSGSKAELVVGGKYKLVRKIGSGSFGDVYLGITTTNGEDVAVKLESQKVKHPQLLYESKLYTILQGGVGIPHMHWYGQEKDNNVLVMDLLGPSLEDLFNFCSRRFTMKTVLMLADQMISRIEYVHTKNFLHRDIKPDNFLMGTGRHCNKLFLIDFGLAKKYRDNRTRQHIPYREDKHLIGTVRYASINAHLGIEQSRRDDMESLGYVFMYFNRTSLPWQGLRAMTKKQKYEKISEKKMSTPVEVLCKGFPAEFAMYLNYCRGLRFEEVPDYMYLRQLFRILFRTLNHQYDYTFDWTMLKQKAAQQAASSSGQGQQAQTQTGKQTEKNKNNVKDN
# In short: as §1
# [3] = target: OSR1 (Homo sapiens, UniProt O95747); conditions: OSR1, 1 μM; read-out: % control
# In short: as §1
# [4] = target: T3, SRC (Homo sapiens, UniProt P12931); conditions: read-out: % control
# T3 construct: purchased KinomeScan® (panel service)
# In short: as §1
# [5] = target: EIF2AK1 (Homo sapiens, UniProt Q9BQI3); conditions: EIF2AK1, 1 μM; read-out: % control
# In short: as §1
# [6] = target: T4, CASK (Homo sapiens, UniProt O14936); conditions: read-out: % control
# T4 sequence (O14936 1-926): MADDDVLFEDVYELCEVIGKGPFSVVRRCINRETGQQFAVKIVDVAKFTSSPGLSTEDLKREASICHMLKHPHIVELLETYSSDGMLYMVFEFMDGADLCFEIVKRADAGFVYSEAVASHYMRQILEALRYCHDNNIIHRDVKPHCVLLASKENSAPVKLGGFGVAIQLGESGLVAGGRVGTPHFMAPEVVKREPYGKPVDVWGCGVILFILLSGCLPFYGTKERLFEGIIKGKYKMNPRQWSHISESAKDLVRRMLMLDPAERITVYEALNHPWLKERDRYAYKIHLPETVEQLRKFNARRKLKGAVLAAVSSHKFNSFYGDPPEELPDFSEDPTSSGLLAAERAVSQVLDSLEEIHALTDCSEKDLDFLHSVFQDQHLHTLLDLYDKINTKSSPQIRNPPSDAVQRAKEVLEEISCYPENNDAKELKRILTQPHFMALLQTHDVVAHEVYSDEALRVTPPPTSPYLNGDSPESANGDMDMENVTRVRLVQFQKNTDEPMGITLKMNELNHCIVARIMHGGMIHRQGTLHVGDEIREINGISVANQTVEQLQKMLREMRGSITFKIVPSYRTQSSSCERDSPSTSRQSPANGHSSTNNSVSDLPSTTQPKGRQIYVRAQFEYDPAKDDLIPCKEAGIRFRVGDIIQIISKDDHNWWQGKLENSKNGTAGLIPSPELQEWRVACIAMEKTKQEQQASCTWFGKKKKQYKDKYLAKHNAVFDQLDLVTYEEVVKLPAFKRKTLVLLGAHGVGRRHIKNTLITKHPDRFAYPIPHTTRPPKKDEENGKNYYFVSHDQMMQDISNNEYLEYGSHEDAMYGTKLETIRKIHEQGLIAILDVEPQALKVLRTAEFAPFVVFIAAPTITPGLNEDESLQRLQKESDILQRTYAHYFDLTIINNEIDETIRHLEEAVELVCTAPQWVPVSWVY
# In short: as §1
# [7] = target: T5, MST2 (Homo sapiens, UniProt Q13188); conditions: MST2, 1 μM; read-out: % control
# T5 sequence (Q13188 1-491): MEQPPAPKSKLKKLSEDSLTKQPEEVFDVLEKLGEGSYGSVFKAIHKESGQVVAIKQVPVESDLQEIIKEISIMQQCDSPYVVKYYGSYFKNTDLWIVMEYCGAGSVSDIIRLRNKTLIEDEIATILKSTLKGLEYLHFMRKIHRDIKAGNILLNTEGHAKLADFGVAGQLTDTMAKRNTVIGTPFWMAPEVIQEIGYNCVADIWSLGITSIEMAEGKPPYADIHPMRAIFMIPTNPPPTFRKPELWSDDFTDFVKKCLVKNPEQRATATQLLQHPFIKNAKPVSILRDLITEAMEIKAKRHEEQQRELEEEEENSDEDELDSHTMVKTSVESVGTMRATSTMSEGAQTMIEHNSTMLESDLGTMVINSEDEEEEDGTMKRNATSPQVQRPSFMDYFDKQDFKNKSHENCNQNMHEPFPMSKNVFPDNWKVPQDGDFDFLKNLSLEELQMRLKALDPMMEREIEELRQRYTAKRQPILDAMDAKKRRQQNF
# In short: as §1
# [8] = target: FGFR3 (Homo sapiens, UniProt P22607); conditions: FGFR3, 1 μM; read-out: % control
# In short: as §1
# [9] = target: T6, STK33 (Homo sapiens, UniProt Q9BYT3); conditions: STK33, 1 μM; read-out: % control
# T6 construct: purchased KinomeScan® (panel service)
# In short: as §1
# T1 sequence (P00519 whole entry F317L): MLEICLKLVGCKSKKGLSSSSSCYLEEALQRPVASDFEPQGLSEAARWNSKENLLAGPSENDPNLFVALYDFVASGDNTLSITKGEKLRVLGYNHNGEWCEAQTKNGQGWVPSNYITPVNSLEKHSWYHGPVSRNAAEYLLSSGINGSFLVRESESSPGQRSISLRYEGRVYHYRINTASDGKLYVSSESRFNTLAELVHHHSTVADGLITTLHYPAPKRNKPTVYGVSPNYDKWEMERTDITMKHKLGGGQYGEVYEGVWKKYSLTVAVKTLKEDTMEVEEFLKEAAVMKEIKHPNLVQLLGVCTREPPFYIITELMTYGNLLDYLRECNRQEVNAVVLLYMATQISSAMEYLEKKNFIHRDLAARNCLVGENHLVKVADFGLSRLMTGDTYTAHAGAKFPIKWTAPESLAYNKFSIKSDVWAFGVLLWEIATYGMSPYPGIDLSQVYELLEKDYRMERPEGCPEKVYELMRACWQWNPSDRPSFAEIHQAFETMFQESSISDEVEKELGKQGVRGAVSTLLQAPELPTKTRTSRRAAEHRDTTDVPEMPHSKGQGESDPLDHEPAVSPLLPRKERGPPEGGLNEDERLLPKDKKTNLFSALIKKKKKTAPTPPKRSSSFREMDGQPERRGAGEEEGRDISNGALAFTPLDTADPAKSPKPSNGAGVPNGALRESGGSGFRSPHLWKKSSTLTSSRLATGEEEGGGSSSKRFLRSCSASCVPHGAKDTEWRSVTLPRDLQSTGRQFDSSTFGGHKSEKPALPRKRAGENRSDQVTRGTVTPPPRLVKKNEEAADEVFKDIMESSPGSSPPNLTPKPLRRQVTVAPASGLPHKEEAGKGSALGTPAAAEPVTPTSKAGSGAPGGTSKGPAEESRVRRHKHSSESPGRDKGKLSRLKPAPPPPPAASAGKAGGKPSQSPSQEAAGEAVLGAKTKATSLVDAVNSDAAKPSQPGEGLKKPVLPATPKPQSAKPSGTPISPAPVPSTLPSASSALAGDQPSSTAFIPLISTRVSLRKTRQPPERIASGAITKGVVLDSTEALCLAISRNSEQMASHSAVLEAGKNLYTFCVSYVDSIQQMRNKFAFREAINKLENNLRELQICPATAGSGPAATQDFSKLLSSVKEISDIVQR
# T6 sequence (Q9BYT3 whole entry): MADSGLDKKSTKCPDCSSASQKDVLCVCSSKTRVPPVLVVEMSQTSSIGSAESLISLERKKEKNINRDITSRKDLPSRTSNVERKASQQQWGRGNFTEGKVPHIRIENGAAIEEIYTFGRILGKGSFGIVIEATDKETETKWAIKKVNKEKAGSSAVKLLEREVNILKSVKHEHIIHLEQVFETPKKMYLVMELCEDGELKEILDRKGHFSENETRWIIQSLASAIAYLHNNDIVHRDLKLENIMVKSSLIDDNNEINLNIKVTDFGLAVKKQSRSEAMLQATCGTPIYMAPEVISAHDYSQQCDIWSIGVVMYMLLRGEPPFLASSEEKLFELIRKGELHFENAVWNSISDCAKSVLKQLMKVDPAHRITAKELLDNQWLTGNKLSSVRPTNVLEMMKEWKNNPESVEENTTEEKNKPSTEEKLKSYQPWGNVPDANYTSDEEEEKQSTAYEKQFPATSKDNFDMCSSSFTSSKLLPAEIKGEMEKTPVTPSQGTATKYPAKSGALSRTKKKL
# FGFR3, sequence (P22607 23-806): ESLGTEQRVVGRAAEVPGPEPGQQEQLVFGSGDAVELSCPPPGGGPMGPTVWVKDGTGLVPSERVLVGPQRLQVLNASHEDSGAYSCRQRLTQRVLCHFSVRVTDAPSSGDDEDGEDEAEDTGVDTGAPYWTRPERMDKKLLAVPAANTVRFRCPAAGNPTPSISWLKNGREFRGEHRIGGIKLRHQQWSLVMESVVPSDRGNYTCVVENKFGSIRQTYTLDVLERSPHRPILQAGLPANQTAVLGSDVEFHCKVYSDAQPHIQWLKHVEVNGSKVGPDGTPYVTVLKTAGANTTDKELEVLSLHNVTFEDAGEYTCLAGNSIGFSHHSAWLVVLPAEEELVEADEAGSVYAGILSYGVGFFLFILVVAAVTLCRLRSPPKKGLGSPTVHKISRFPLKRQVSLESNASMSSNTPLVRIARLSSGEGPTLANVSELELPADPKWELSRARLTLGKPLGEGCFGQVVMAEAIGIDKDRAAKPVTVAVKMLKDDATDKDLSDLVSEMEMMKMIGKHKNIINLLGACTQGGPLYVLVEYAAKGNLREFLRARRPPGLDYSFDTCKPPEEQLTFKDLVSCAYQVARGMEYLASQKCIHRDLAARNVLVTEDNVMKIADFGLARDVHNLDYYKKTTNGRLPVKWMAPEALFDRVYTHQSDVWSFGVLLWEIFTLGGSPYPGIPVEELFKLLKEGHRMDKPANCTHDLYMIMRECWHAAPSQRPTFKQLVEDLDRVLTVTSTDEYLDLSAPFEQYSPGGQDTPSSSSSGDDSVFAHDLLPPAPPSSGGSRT
# EIF2AK1, sequence (Q9BQI3 whole entry): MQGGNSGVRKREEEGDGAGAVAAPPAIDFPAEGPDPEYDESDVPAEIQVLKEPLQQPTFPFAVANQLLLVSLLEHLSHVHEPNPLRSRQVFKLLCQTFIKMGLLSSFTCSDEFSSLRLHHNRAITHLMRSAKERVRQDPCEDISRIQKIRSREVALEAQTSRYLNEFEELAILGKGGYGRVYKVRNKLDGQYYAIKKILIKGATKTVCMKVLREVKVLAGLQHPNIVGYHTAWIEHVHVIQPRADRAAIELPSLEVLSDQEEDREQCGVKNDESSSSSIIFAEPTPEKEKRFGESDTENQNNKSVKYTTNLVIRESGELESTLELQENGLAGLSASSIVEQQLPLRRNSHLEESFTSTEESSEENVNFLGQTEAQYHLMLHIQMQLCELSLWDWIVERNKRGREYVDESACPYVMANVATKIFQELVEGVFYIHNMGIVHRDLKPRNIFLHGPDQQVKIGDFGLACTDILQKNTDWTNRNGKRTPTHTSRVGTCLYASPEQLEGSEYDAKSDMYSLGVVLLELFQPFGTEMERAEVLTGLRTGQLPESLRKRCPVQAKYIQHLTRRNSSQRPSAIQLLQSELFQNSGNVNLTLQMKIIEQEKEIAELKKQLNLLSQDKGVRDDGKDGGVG
# T3 sequence (P12931 whole entry): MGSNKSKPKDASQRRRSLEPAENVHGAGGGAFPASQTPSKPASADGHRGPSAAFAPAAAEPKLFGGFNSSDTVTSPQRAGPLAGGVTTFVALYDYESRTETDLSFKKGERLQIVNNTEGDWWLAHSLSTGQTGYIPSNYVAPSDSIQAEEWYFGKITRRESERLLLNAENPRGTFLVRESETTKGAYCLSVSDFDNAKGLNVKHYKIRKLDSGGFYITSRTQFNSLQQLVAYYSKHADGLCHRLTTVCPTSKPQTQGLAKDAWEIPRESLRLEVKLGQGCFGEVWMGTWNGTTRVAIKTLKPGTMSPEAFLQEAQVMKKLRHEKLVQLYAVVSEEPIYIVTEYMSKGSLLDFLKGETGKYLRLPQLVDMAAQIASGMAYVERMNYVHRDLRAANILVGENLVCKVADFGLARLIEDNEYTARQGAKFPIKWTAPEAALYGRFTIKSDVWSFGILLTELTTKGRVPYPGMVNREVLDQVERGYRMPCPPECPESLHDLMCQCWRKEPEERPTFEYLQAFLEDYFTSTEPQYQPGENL
# OSR1, sequence (O95747 whole entry): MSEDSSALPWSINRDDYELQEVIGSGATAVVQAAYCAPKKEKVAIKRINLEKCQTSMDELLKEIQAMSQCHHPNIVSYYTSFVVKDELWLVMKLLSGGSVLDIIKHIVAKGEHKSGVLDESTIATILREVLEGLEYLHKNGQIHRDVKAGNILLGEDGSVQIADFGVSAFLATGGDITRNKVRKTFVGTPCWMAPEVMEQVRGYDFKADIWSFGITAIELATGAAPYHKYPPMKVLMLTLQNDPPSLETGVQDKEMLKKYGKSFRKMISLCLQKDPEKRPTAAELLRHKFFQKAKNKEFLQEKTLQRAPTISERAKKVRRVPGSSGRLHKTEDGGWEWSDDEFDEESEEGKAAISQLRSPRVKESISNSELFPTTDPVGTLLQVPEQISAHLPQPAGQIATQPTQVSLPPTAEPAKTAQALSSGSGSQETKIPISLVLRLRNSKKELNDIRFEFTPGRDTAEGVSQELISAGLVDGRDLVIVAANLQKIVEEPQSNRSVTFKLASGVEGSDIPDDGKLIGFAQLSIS
Compound,remaining binding at 1 µM [1] [%],remaining binding at 1 µM [2] [%],remaining binding at 1 µM [3] [%],remaining binding at 1 µM [4] [%],remaining binding at 1 µM [5] [%],remaining binding at 1 µM [6] [%],remaining binding at 1 µM [7] [%],remaining binding at 1 µM [8] [%],remaining binding at 1 µM [9] [%]
"CNc1c(-c2cnn([C@H]3CCN(C(C)=O)C[C@@H]3F)c2)cnc2[nH]cc(Cl)c12 [Compound 77, 1-((3S,4S)-4-(4-(3-chloro-4-(methylamino)-1H-pyrrolo[2,3-b]pyridin-5-yl)-1H-pyrazol-1-yl)-3-fluoropiperidin-1-yl)ethan-1-one]",91,79,75,99,100,95,100,64,100
"O=C(c1ccc(-c2cnc3[nH]cc(Cl)c3c2NC2CCCC2)cc1)N1CCC(N2CCOCC2)CC1 [Compound 101, (4-(3-chloro-4-(cyclopentylamino)-1H-pyrrolo[2,3-b]pyridin-5-yl)phenyl)(4-morpholinopiperidin-1-yl)methanone]",43,100,100,100,100,100,74,67,100
"CNc1c(-c2ccc(C(=O)N3CCC(N4CCOCC4)CC3)cc2)cnc2[nH]cc(Cl)c12 [Compound 96, (4-(3-chloro-4-(methylamino)-1H-pyrrolo[2,3-b]pyridin-5-yl)phenyl)(4-morpholinopiperidin-1-yl)methanone]",81,48,66,100,100,94,99,82,100
